From ChEMBL document CHEMBL1914411, “Synthesis of lipophilic dimeric C-7/C-7-linked ciprofloxacin and C-6/C-6-linked levofloxacin derivatives. Versatile in vitro biological evaluations of monomeric and dimeric fluoroquinolone derivatives as potential antitumor, antibacterial or antimycobacterial agents” (Eur J Med Chem, 2011)
In brackets after ≈: the same amount, converted by molar mass. Activity calls are given as the source filed them.

Experiments:
[1] = tested on: Staphylococcus aureus; experiment: Antimicrobial activity against Staphylococcus aureus CIP 4.83 after 18 to 24 hrs by broth microdilution method; assay type: functional
[2] = tested on: Mycobacterium tuberculosis; experiment: Antimycobacterial activity against Mycobacterium tuberculosis H37Rv assessed as growth inhibition at 10 uM after 6 days by MTT colorimetric microassay; assay type: functional; conditions: for inhibition of growth at 10 µM: 144 h, read-out: GI
[3] = tested on: Mycobacterium tuberculosis; experiment: Antimycobacterial activity against Mycobacterium tuberculosis H37Rv assessed as growth inhibition at 0.1 uM after 6 days by MTT colorimetric microassay; assay type: functional, organism-based
[4] = tested on: Escherichia coli; experiment: Antimicrobial activity against Escherichia coli CIP 53126 after 18 to 24 hrs by broth microdilution method; assay type: functional
[5] = tested on: Pseudomonas aeruginosa; experiment: Antimicrobial activity against Pseudomonas aeruginosa CIP 82.118 after 18 to 24 hrs by broth microdilution method; assay type: functional
[6] = tested on: Enterococcus hirae; experiment: Antimicrobial activity against Enterococcus hirae CIP 5855 after 18 to 24 hrs by broth microdilution method; assay type: functional
[7] = tested on: Mycobacterium tuberculosis; experiment: Antimycobacterial activity against Mycobacterium tuberculosis H37Rv after 6 days by MTT colorimetric microassay; assay type: functional, organism-based; conditions: 144 h
[8] = tested on: Mycobacterium tuberculosis; experiment: Antimycobacterial activity against Mycobacterium tuberculosis H37Rv assessed as growth inhibition at 1 uM after 6 days by MTT colorimetric microassay; assay type: functional; conditions: 144 h, read-out: GI
[9] = tested on: Staphylococcus aureus; experiment: Antimicrobial activity against multidrug-resistant Staphylococcus aureus isolate 2 after 18 to 24 hrs by broth microdilution method; assay type: functional
[10] = tested on: Staphylococcus aureus; experiment: Antimicrobial activity against methicillin-resistant Staphylococcus aureus ATCC 33591 after 18 to 24 hrs by broth microdilution method; assay type: functional
[11] = tested on: Staphylococcus aureus; experiment: Antimicrobial activity against multidrug-resistant Staphylococcus aureus isolate 1 after 18 to 24 hrs by broth microdilution method; assay type: functional
[12] = tested on: Staphylococcus aureus; experiment: Antimicrobial activity against methicillin-resistant Staphylococcus aureus ATCC 33592 after 18 to 24 hrs by broth microdilution method; assay type: functional

SMILES	MBC [1]	MIC [1]	inhibition of growth at 10 µM [2]	growth inhibition (GI) [3]	MBC [4]	MIC [4]	MBC [5]	MIC [5]	MBC [6]	MIC [6]	further results
CCCCCCCCCC(=O)OCOC(=O)c1cn2c3c(c(N4CCN(C)CC4)c(F)cc3c1=O)OC[C@@H]2C	≤ 0.97 µM	≤ 0.97 µM	> 95%	inactive	≤ 0.97 µM	≤ 0.97 µM	3.9 µM (≈ 2.13 µg/mL)	≤ 0.97 µM	1.9 µM (≈ 1.04 µg/mL)	≤ 0.97 µM	
CCCCCCCCCCCCCNC(=O)c1cn2c3c(c(N4CCN(C)CC4)c(F)cc3c1=O)OC[C@@H]2C			> 95%	inactive							MIC [7]: > 10 µM; inhibition of growth at 1 µM [8]: 5%
O=C(O)c1cn(C2CC2)c2cc(N3CCN(C(=O)CCCCCCCCC(=O)N4CCN(c5cc6c(cc5F)c(=O)c(C(=O)O)cn6C5CC5)CC4)CC3)c(F)cc2c1=O	250 µM (≈ 207 µg/mL)	250 µM (≈ 207 µg/mL)		inactive	250 µM (≈ 207 µg/mL)	250 µM (≈ 207 µg/mL)	125 µM (≈ 104 µg/mL)	62.5 µM (≈ 51.8 µg/mL)	250 µM (≈ 207 µg/mL)	250 µM (≈ 207 µg/mL)	growth inhibition (GI) [2]: inactive
CCCCCCCCCCC(=O)OCC(=O)N1CCN(c2cc3c(cc2F)c(=O)c(C(=O)O)cn3C2CC2)CC1	≤ 0.97 µM	≤ 0.97 µM	> 95%	inactive	250 µM (≈ 139 µg/mL)	62.5 µM (≈ 34.9 µg/mL)	250 µM (≈ 139 µg/mL)	62.5 µM (≈ 34.9 µg/mL)	1.9 µM (≈ 1.06 µg/mL)	≤ 0.97 µM	MBC [9]: 15.6 µM (≈ 8.7 µg/mL); MIC [9]: 7.8 µM (≈ 4.35 µg/mL); MBC [10]: 1.9 µM (≈ 1.06 µg/mL); MIC [10]: 0.97 µM (≈ 0.541 µg/mL); MBC [11]: 500 µM (≈ 279 µg/mL); MIC [11]: 15.6 µM (≈ 8.7 µg/mL); MBC [12]: 0.03 µM (≈ 0.0167 µg/mL)
CCCCCCCCC(=O)N1CCN(c2cc3c(cc2F)c(=O)c(C(=O)O)cn3C2CC2)CC1	≤ 0.03 µM	≤ 0.97 µM	> 95%	inactive	500 µM (≈ 236 µg/mL)	31.2 µM (≈ 14.7 µg/mL)	250 µM (≈ 118 µg/mL)	62.5 µM (≈ 29.5 µg/mL)	31.2 µM (≈ 14.7 µg/mL)	31.2 µM (≈ 14.7 µg/mL)	MBC [9]: 500 µM (≈ 236 µg/mL); MIC [9]: 31.2 µM (≈ 14.7 µg/mL); MBC [10]: 0.24 µM (≈ 0.113 µg/mL); MIC [10]: 0.02 µM (≈ 0.00943 µg/mL); MBC [11]: 500 µM (≈ 236 µg/mL); MIC [11]: 31.2 µM (≈ 14.7 µg/mL); MBC [12]: 0.24 µM (≈ 0.113 µg/mL); MIC [12]: 0.12 µM (≈ 0.0566 µg/mL)
C[C@H]1COc2c(N3CCN(C)CC3)c(F)cc3c(=O)c(C(=O)NCCCCCCNC(=O)c4cn5c6c(c(N7CCN(C)CC7)c(F)cc6c4=O)OC[C@@H]5C)cn1c23	500 µM (≈ 401 µg/mL)	125 µM (≈ 100 µg/mL)	60%	inactive	62.5 µM (≈ 50.2 µg/mL)	62.5 µM (≈ 50.2 µg/mL)	250 µM (≈ 201 µg/mL)	62.5 µM (≈ 50.2 µg/mL)	125 µM (≈ 100 µg/mL)	125 µM (≈ 100 µg/mL)	MIC [7]: > 10 µM
CCCCCCCC(=O)OCOC(=O)c1cn2c3c(c(N4CCN(C)CC4)c(F)cc3c1=O)OC[C@@H]2C			> 95%	inactive							IC50 [7]: 1.3 µM; MIC [7]: 2.5 µM (≈ 1.29 µg/mL); inhibition of growth at 1 µM [8]: 74%
O=C(CCCCCCCCCCCCCCCCC(=O)OCN1CCN(c2cc3c(cc2F)c(=O)c(C(=O)O)cn3C2CC2)CC1)OCN1CCN(c2cc3c(cc2F)c(=O)c(C(=O)O)cn3C2CC2)CC1	15.6 µM (≈ 15.6 µg/mL)	7.8 µM (≈ 7.81 µg/mL)		inactive	31.2 µM (≈ 31.2 µg/mL)	15.6 µM (≈ 15.6 µg/mL)	250 µM (≈ 250 µg/mL)	62.5 µM (≈ 62.6 µg/mL)	125 µM (≈ 125 µg/mL)	62.5 µM (≈ 62.6 µg/mL)	growth inhibition (GI) [2]: inactive
O=C(CCCCCCCCC(=O)OCN1CCN(c2cc3c(cc2F)c(=O)c(C(=O)O)cn3C2CC2)CC1)OCN1CCN(c2cc3c(cc2F)c(=O)c(C(=O)O)cn3C2CC2)CC1	250 µM (≈ 222 µg/mL)	31.2 µM (≈ 27.7 µg/mL)	62%	inactive	62.5 µM (≈ 55.6 µg/mL)	31.2 µM (≈ 27.7 µg/mL)	125 µM (≈ 111 µg/mL)	31.2 µM (≈ 27.7 µg/mL)	250 µM (≈ 222 µg/mL)	62.5 µM (≈ 55.6 µg/mL)	
CCCCCCCC(=O)OCC(=O)N1CCN(c2cc3c(cc2F)c(=O)c(C(=O)O)cn3C2CC2)CC1	≤ 0.001 µM	≤ 0.001 µM	> 95%	inactive	62.5 µM (≈ 32.2 µg/mL)	31.2 µM (≈ 16.1 µg/mL)	250 µM (≈ 129 µg/mL)	31.2 µM (≈ 16.1 µg/mL)	≤ 0.97 µM	≤ 0.97 µM	MBC [9]: 15.6 µM (≈ 8.04 µg/mL); MIC [9]: 15.6 µM (≈ 8.04 µg/mL); MIC [10]: ≤ 0.001 µM; MBC [11]: 500 µM (≈ 258 µg/mL); MIC [11]: 7.8 µM (≈ 4.02 µg/mL); MBC [12]: ≤ 0.001 µM; MIC [12]: ≤ 0.001 µM
CCCCCCCCCCCC(=O)N1CCN(c2cc3c(cc2F)c(=O)c(C(=O)O)cn3C2CC2)CC1	7.8 µM (≈ 4.01 µg/mL)	3.9 µM (≈ 2 µg/mL)	> 95%	inactive	7.8 µM (≈ 4.01 µg/mL)	7.8 µM (≈ 4.01 µg/mL)	250 µM (≈ 128 µg/mL)	62.5 µM (≈ 32.1 µg/mL)	7.8 µM (≈ 4.01 µg/mL)	7.8 µM (≈ 4.01 µg/mL)	inhibition of growth at 1 µM [8]: 20%
